{
  "source": "patent US12048711B2",
  "about": "“Composition and use thereof in the manufacture of medicament for treating cancer” (priority 2020, dated 2024)",
  "key": {"[1]": {"test_system": "lung cancer A549 cells", "assay": "Trypan blue staining of A549 cells treated with Gefitinib in sugar-free and sugar-containing medium", "format": "cell-based", "settings": "20 μM Gefitinib, 48 hours", "procedure": "[…]. A549 cells were grown to 80% density, passed, resuspended in a normal medium (25 mM glucose) to a concentration of 4×10^5 cells per ml, and plated in a 24-well plate with 1 ml per well. After 24 hours, the medium was changed to sugar-free medium (0 mM glucose) and normal medium, respectively, and added with Gefitinib for treating the cell. After 48 hours, the medium was discarded, and 1 ml of 1×PBS was added to wash once, and 1 ml of 1×Trypan Blue was added to each well for staining for 10 minutes. Then, the trypan blue staining solution was aspirated, and the plate was washed three times by adding 1 ml of 1×PBS, and photographed under a light microscope. […] […]. […] According to the background section, cancer cells mainly rely on the SGLT family of proteins to absorb sugar. Therefore, the present disclosure relates use of a composition comprising dual inhibitor Sotagliflozin of SGLT1 and SGLT2, the two most important members of the SGLT family highly expressed in cancer cells, and a tyrosine kinase inhibitor in the manufacture of a medicament for treating cancer.\n. Based on the previous findings illustrated in FIG. 1, Sotagliflozin was purchased from Selleck Chemicals for growth inhibition test of cancer cell in vitro. […] Therefore, the concentration of Sotagliflozin used in the subsequent compositions of this experiment were lower than 80 μM to avoid affecting normal cells."}, "[2]": {"test_system": "lung cancer A549 cells", "assay": "A549 xenograft tumor treatment trial in nude mice", "format": "in vivo, Balbc nude mice", "settings": "for Average tumor volume: in mm³ (unit assumed)", "procedure": "After growing to the logarithmic phase, A549 cells were collected and resuspended in serum-free DMEM medium to 5×10^7 cells per ml. Each mouse was inoculated with 100 μl of 5×10^6 cells, and the tumor size was measured 19 days later. Mice were grouped according to the tumor size, and the average tumor size in each group was the same. Mice were administered after grouping. […] The dosage of Gefitinib was 100 mg per kilogram according to the reported dose for the treatment of A549 xenografts in previous studies. The two drugs were administered by gavage, consistent with the current oral mode in clinical use. The dosing cycle was once every two days. The tumor size was measured every two days. After 40 days of administration, the test was ended, and the tumor was removed and weighed."}, "[3]": {"test_system": "liver cancer HepG2 cells, colorectal cancer LoVo, HT29, DLD1, SW480, and HCT116 cells", "assay": "Growth inhibition by Lenvatinib alone and with Sotagliflozin in a variety of cell lines", "format": "cell-based", "settings": "addition of Sotagliflozin at a safe dose; FIG. 5", "description": "Therefore, the effect of the combination in the safe concentration range of Sotagliflozin is better than the effect of each single agent. It is worth mentioning that the ability of Sotagliflozin in the combination to enhance the efficacy of VEGFR-targeting TKI drugs is not limited to a single drug of Apatinib."}, "[4]": {"test_system": "normal human umbilical cord epithelial cells", "assay": "Determination of the safe concentration of Sotagliflozin on normal cells", "format": "cell-based", "procedure": "The killing effect of Gefitinib on lung cancer A549 cells cultured in sugar-free medium and sugar-containing medium 48 hours after treating A549 cells with 20 μM Gefitinib, trypan blue staining was used to distinguish live cells from dead cells which were stained blue by trypan blue. Based on the previous findings illustrated in FIG. 1, Sotagliflozin was purchased from Selleck Chemicals for growth inhibition test of cancer cell in vitro. […] Therefore, the concentration of Sotagliflozin used in the subsequent compositions of this experiment were lower than 80 μM to avoid affecting normal cells."}, "[5]": {"test_system": "Lung cancer cell line A549", "assay": "IC50 determination of EGFR inhibitor + Sotagliflozin combination on A549", "format": "cell-based", "settings": "Homo sapiens, single agent, cell survival rate after 1 h incubation, read-out: IC50 value on A549 cells", "procedure": "After growing to 80% density, the cells were trypsinized, passaged and plated in a 96-well plate with 5000 cells per well. After 24 hours, the medium was replaced with a medium containing the corresponding concentration of drug. After 48 hours, the absorbance at each concentration was detected by the MTT method."}, "[6]": {"test_system": "Liver cancer cell line HepG2", "assay": "IC50 determination of Apatinib+Sotagliflozin combination on HepG2", "format": "cell-based", "settings": "Homo sapiens, single agent, cell survival rate after 2 h incubation, read-out: IC50 value on HepG2 cells", "description": "After obtaining the effectiveness of […] in Example 1, the present disclosure further validated another VEGFR-targeting TKI drug, Apatinib. According to the tissue distribution characteristics of VEGFR and SGLT1/2, the targets of Apatinib and Sotagliflozin, the followings cells were selected for experimental verification: liver cancer cell line HepG2; colorectal cancer cell line LoVo, HT29, SW620, SW480; cervical cancer HeLa; ovarian cancer SKOV3; gastric cancer NGC27; cholangiocarcinoma RBE; esophageal cancer KYSE3. After growing to 80% density, the cells were trypsinized, passaged and plated in a 96-well plate with 5000 cells per well. […] After 48 hours, the absorbance at each concentration was detected by the MTT method. […]\nApatinib test group (FIG. 4-b-1): cells were treated by adding Apatinib alone at 6 different concentrations, 0 μM, 5 μM, 10 μM, 20 μM, 30 μM and 40 μM, respectively, to the culture medium, and cell survival rate was measured after 2 h incubation.\nSotagliflozin test group (FIG. 4-b-2): cells were treated by adding Sotagliflozin alone at 7 different concentrations, 0 μM, 20 μM, 30 μM, 40 μM, 60 μM, 80 μM and 100 μM respectively, to the culture medium, and cell survival rate was measured after 2 h incubation. […]"}, "[7]": {"test_system": "liver cancer cell line HepG2; colorectal cancer cell line LoVo, HT29, SW620, SW480", "assay": "MTT cell growth inhibition, Apatinib alone and with Sotagliflozin", "format": "cell-based", "settings": "Apatinib alone 5-30 μM, 48 hours, FIG. 4-a-1 to 4-a-5", "description": "After obtaining the effectiveness of […] in Example 1, the present disclosure further validated another VEGFR-targeting TKI drug, Apatinib. According to the tissue distribution characteristics of VEGFR and SGLT1/2, the targets of Apatinib and Sotagliflozin, the followings cells were selected for experimental verification: liver cancer cell line HepG2; colorectal cancer cell line LoVo, HT29, SW620, SW480; cervical cancer HeLa; ovarian cancer SKOV3; gastric cancer NGC27; cholangiocarcinoma RBE; esophageal cancer KYSE3. After growing to 80% density, the cells were trypsinized, passaged and plated in a 96-well plate with 5000 cells per well. After 24 hours, the medium was replaced with a medium containing the corresponding concentration of Apatinib, Sotagliflozin, or the combination of Apatinib and Sotagliflozin. After 48 hours, the absorbance at each concentration was detected by the MTT method. The experiment included the following groups: Control group: cells were cultured in normal culture medium without drug added. […] The cell growth inhibition rate is calculated by dividing the absorbance value at each concentration by the absorbance value of the control group. […] In the figure, the concentration of Apatinib is taken as the abscissa and the cell growth inhibition rate is taken as the ordinate."}, "[8]": {"settings": "A549 tumor-bearing mice, gavage once every two days, 40 days, Sotagliflozin 30 mg/kg, Gefitinib 100 mg/kg"}},
  "note": "pIC50: −log10 of the molar value.",
  "data": [
    {"smiles": "COc1cc2ncnc(Nc3ccc(F)c(Cl)c3)c2cc1OCCCN1CCOCC1", "note": "[Gefitinib]", "values": [
      {"measurement": "trypan blue staining (dead cells stained blue)", "setting": "[1]; normal medium (25 mM glucose)", "result": "almost no blue coloration"},
      {"measurement": "trypan blue staining (dead cells stained blue)", "setting": "[1]; sugar-free medium (0 mM glucose)", "result": "almost all colored blue, indicating dead cells"},
      {"measurement": "Tumor volume ratio of each group to the control group", "setting": "[2]; mouse, in vivo", "result": 0.4881},
      {"measurement": "effectiveness evaluation", "setting": "[2]; mouse, in vivo", "result": "ineffective"},
      {"measurement": "Average tumor volume", "setting": "[2]; mouse, in vivo", "result": 504.8}
    ]},
    {"smiles": "COc1cc2nccc(Oc3ccc(NC(=O)NC4CC4)c(Cl)c3)c2cc1C(N)=O", "note": "[Lenvatinib]", "values": [
      {"measurement": "effect of adding Sotagliflozin on inhibitory effect of Lenvatinib", "setting": "[3]", "result": "enhanced the inhibitory effect"}
    ]},
    {"smiles": "CCOc1ccc(Cc2cc([C@@H]3O[C@H](SC)[C@@H](O)[C@H](O)[C@H]3O)ccc2Cl)cc1", "note": "[Sotagliflozin]", "values": [
      {"measurement": "concentration mainly exhibiting cell growth inhibition effect", "setting": "[4]", "result": "lower than 80 μM"},
      {"measurement": "concentration producing great cytotoxicity", "setting": "[4]", "result": "higher than 80 μM"},
      {"measurement": "pIC50", "setting": "[5]", "result": 4.14},
      {"measurement": "pIC50", "setting": "[6]", "result": 3.94},
      {"measurement": "inhibition of tumor growth (in words)", "setting": "[2]; A549 tumor-bearing mice, FIG. 7-a to 7-c", "result": "can inhibit tumor growth"},
      {"measurement": "Tumor growth inhibition rate", "setting": "[2]; [8]", "result": 58.4, "unit": "%"},
      {"measurement": "Tumor volume ratio of each group to the control group", "setting": "[2]; [8]", "result": 0.416},
      {"measurement": "Average tumor volume", "setting": "[2]; [8]", "result": 430.3},
      {"measurement": "effectiveness evaluation", "setting": "[2]; effective if tumor growth inhibition rate greater than 60% and p value less than 0.05", "result": "ineffective"}
    ]},
    {"smiles": "N#CC1(c2ccc(NC(=O)c3cccnc3NCc3ccncc3)cc2)CCCC1", "note": "[Apatinib]", "values": [
      {"measurement": "inhibitory effect on tumor cells (cell growth inhibition rate)", "setting": "[7]", "result": "limited"},
      {"measurement": "pIC50", "setting": "[6]", "result": 4.34}
    ]}
  ]
}
